Experimental data published in ChEMBL document CHEMBL1201862, “PubChem BioAssay data set” (2004).
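All cell lines were grown in 96-well plates and treated with compound for 48 hours. At the GI50, growth is halved.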 Active and inactive are the calls of the source. Rule as the data show it: active = GI50 up to about 1.1 µM and inactive = higher.

Tests used:
Experiment in all cases: growth of human tumour cells (NCI), 48 h
[1] = test system: OVCAR-4
[2] = test system: U-251
[3] = test system: Malme-3M
[4] = test system: NCI-H460
[5] = test system: HCC 2998
[6] = test system: LXFL 529
[7] = test system: SF-539
[8] = test system: TK-10
[9] = test system: DMS-114
[10] = test system: HT-29
[11] = test system: A549
[12] = test system: 786-0
[13] = test system: MOLT-4
[14] = test system: IGROV-1
[15] = test system: K562
[16] = test system: M19-MEL
[17] = test system: OVCAR-3
[18] = test system: HCT-116
[19] = test system: EKVX
[20] = test system: HL-60
[21] = test system: NCI-H23
[22] = test system: UACC-257
[23] = test system: UO-31
[24] = test system: M14
[25] = test system: COLO 205
[26] = test system: NCI-H226
[27] = test system: SK-MEL-2
[28] = test system: DMS-273
[29] = test system: SK-OV-3
[30] = test system: RPMI-8226
[31] = test system: OVCAR-8
[32] = test system: ACHN
[33] = test system: UACC-62
[34] = test system: HOP-18
[35] = test system: SW-620
[36] = test system: SNB-19
[37] = test system: SF-295
[38] = test system: LOX IMVI
[39] = test system: A498
[40] = test system: SF-268
[41] = test system: KM-20L2
[42] = test system: HOP-92
[43] = test system: XF498
[44] = test system: DLD-1
[45] = test system: KM12
[46] = test system: SN12C
[47] = test system: NCI-H522
[48] = test system: HCT-15
[49] = test system: OVCAR-5
[50] = test system: CAKI-1
[51] = test system: CCRF-CEM
[52] = test system: SK-MEL-5
[53] = test system: SNB-78
[54] = test system: SNB-75
[55] = test system: MCF7
[56] = test system: RXF 393
[57] = test system: SK-MEL-28
[58] = test system: NCI/ADR-RES
[59] = test system: HOP-62

Q: With `O=C(CCC(=O)Nc1ccc(Cl)c(Cl)c1)CC(=O)c1ccc(Cl)cc1` as the molecule, how does the GI50 [1] read?
A: > 100 µM (inactive)

Q: What about the GI50 [2] of the same molecule?
A: > 100 µM (inactive)

Q: What about the GI50 [3] of the same molecule?
A: > 100 µM (inactive)

Q: What about the GI50 [4] of the same molecule?
A: > 100 µM (inactive)

Q: And the GI50 [5]?
A: > 100 µM (inactive)

Q: And the GI50 [6]?
A: 83.9 µM (inactive)

Q: What about the GI50 [7] of the same molecule?
A: > 100 µM (inactive)

Q: What about the GI50 [8] of the same molecule?
A: > 100 µM (inactive)

Q: And the GI50 [9]?
A: > 100 µM (inactive)

Q: And the GI50 [10]?
A: > 100 µM (inactive)

Q: And the GI50 [11]?
A: > 100 µM (inactive)

Q: What about the GI50 [12] of the same molecule?
A: > 100 µM (inactive)

Q: What about the GI50 [13] of the same molecule?
A: > 100 µM (inactive)

Q: What about the GI50 [14] of the same molecule?
A: > 100 µM (inactive)

Q: What about the GI50 [15] of the same molecule?
A: > 100 µM (inactive)

Q: And the GI50 [16]?
A: > 100 µM (inactive)

Q: And the GI50 [17]?
A: > 100 µM (inactive)

Q: And the GI50 [18]?
A: > 100 µM (inactive)

Q: And the GI50 [19]?
A: > 100 µM (inactive)

Q: What about the GI50 [20] of the same molecule?
A: > 100 µM (inactive)

Q: And the GI50 [21]?
A: > 100 µM (inactive)

Q: What about the GI50 [22] of the same molecule?
A: > 100 µM (inactive)

Q: And the GI50 [23]?
A: > 100 µM (inactive)

Q: And the GI50 [24]?
A: > 100 µM (inactive)

Q: And the GI50 [25]?
A: > 100 µM (inactive)

Q: And the GI50 [26]?
A: > 100 µM (inactive)

Q: What about the GI50 [27] of the same molecule?
A: > 100 µM (inactive)

Q: What about the GI50 [28] of the same molecule?
A: > 100 µM (inactive)

Q: And the GI50 [29]?
A: > 100 µM (inactive)

Q: And the GI50 [30]?
A: > 100 µM (inactive)

Q: What about the GI50 [31] of the same molecule?
A: > 100 µM (inactive)

Q: And the GI50 [32]?
A: > 100 µM (inactive)

Q: What about the GI50 [33] of the same molecule?
A: 47.8 µM (inactive)

Q: And the GI50 [34]?
A: 80.7 µM (inactive)

Q: And the GI50 [35]?
A: > 100 µM (inactive)

Q: What about the GI50 [36] of the same molecule?
A: > 100 µM (inactive)

Q: And the GI50 [37]?
A: > 100 µM (inactive)

Q: What about the GI50 [38] of the same molecule?
A: > 100 µM (inactive)

Q: What about the GI50 [39] of the same molecule?
A: > 100 µM (inactive)

Q: What about the GI50 [40] of the same molecule?
A: > 100 µM (inactive)

Q: What about the GI50 [41] of the same molecule?
A: > 100 µM (inactive)

Q: What about the GI50 [42] of the same molecule?
A: 24.8 µM (inactive)

Q: What about the GI50 [43] of the same molecule?
A: > 100 µM (inactive)

Q: What about the GI50 [44] of the same molecule?
A: > 100 µM (inactive)

Q: What about the GI50 [45] of the same molecule?
A: > 100 µM (inactive)

Q: What about the GI50 [46] of the same molecule?
A: > 100 µM (inactive)

Q: And the GI50 [47]?
A: > 100 µM (inactive)

Q: What about the GI50 [48] of the same molecule?
A: > 100 µM

Q: What about the GI50 [49] of the same molecule?
A: > 100 µM (inactive)

Q: What about the GI50 [50] of the same molecule?
A: > 100 µM (inactive)

Q: What about the GI50 [51] of the same molecule?
A: > 100 µM (inactive)

Q: `Cc1ccc(C(=O)Nc2ncn(C3CC(O)C(CO)O3)c(=O)n2)cc1` (stereo not drawn) was tested. Which GI50 [1] did it give?
A: > 100 µM (inactive)

Q: What about the GI50 [2] of the same molecule?
A: > 100 µM (inactive)

Q: What about the GI50 [3] of the same molecule?
A: > 100 µM (inactive)

Q: What about the GI50 [4] of the same molecule?
A: > 100 µM (inactive)

Q: What about the GI50 [5] of the same molecule?
A: > 100 µM (inactive)

Q: What about the GI50 [7] of the same molecule?
A: > 100 µM (inactive)

Q: And the GI50 [9]?
A: > 100 µM (inactive)

Q: And the GI50 [10]?
A: > 100 µM (inactive)

Q: And the GI50 [11]?
A: > 100 µM (inactive)

Q: And the GI50 [13]?
A: > 29.6 µM (inactive)

Q: What about the GI50 [14] of the same molecule?
A: > 100 µM (inactive)

Q: What about the GI50 [15] of the same molecule?
A: > 100 µM (inactive)

Q: What about the GI50 [16] of the same molecule?
A: > 100 µM (inactive)

Q: What about the GI50 [17] of the same molecule?
A: > 33.3 µM (inactive)

Q: What about the GI50 [18] of the same molecule?
A: > 100 µM (inactive)

Q: And the GI50 [19]?
A: > 100 µM (inactive)

Q: What about the GI50 [21] of the same molecule?
A: > 100 µM (inactive)

Q: And the GI50 [22]?
A: > 100 µM (inactive)

Q: What about the GI50 [23] of the same molecule?
A: > 100 µM (inactive)

Q: What about the GI50 [52] of the same molecule?
A: > 100 µM (inactive)

Q: And the GI50 [25]?
A: > 100 µM (inactive)

Q: And the GI50 [53]?
A: > 65.5 µM (inactive)

Q: What about the GI50 [54] of the same molecule?
A: > 52.6 µM (inactive)

Q: What about the GI50 [26] of the same molecule?
A: > 100 µM (inactive)

Q: And the GI50 [27]?
A: > 100 µM (inactive)

Q: What about the GI50 [28] of the same molecule?
A: > 100 µM (inactive)

Q: And the GI50 [29]?
A: > 100 µM (inactive)

Q: And the GI50 [30]?
A: > 45.9 µM (inactive)

Q: And the GI50 [31]?
A: > 100 µM (inactive)

Q: What about the GI50 [55] of the same molecule?
A: > 100 µM (inactive)

Q: What about the GI50 [33] of the same molecule?
A: > 100 µM (inactive)

Q: And the GI50 [34]?
A: > 68.2 µM (inactive)

Q: And the GI50 [35]?
A: > 100 µM (inactive)

Q: And the GI50 [56]?
A: > 100 µM (inactive)

Q: What about the GI50 [36] of the same molecule?
A: 12.2 µM (inactive)

Q: And the GI50 [37]?
A: > 100 µM (inactive)

Q: And the GI50 [38]?
A: > 100 µM (inactive)

Q: And the GI50 [39]?
A: > 100 µM (inactive)

Q: And the GI50 [40]?
A: > 100 µM (inactive)

Q: And the GI50 [42]?
A: > 100 µM (inactive)

Q: What about the GI50 [43] of the same molecule?
A: > 100 µM (inactive)

Q: And the GI50 [44]?
A: > 100 µM (inactive)

Q: And the GI50 [45]?
A: > 100 µM (inactive)

Q: What about the GI50 [46] of the same molecule?
A: > 100 µM (inactive)

Q: And the GI50 [57]?
A: > 100 µM (inactive)

Q: What about the GI50 [47] of the same molecule?
A: > 100 µM (inactive)

Q: What about the GI50 [48] of the same molecule?
A: > 100 µM

Q: And the GI50 [49]?
A: > 100 µM (inactive)

Q: What about the GI50 [58] of the same molecule?
A: > 100 µM (inactive)

Q: And the GI50 [50]?
A: > 100 µM (inactive)

Q: And the GI50 [51]?
A: > 100 µM (inactive)

Q: What about the GI50 [59] of the same molecule?
A: > 100 µM (inactive)
